Results taken from patent US20140249056A1, “BILAYERS” (ISIS INNOVATION LIMITED, priority 2009, published 2014).
One block for each compound: values may come before it.

Key:
[1] = molecular target: T1, Kv1.3 (K+ channels from lymphocyte membranes) (Homo sapiens, UniProt P22001); test: Bulk current block of voltage-gated potassium channels from lymphocyte (SupT1) membranes in droplet bilayer; assay type: biochemical; details: +50 mV
T1 construct: endogenously expressed voltage-gated potassium channels in primary lymphocytes; endogenous in cells; host or cells: SupT1 cells
T1 sequence (P22001 whole entry): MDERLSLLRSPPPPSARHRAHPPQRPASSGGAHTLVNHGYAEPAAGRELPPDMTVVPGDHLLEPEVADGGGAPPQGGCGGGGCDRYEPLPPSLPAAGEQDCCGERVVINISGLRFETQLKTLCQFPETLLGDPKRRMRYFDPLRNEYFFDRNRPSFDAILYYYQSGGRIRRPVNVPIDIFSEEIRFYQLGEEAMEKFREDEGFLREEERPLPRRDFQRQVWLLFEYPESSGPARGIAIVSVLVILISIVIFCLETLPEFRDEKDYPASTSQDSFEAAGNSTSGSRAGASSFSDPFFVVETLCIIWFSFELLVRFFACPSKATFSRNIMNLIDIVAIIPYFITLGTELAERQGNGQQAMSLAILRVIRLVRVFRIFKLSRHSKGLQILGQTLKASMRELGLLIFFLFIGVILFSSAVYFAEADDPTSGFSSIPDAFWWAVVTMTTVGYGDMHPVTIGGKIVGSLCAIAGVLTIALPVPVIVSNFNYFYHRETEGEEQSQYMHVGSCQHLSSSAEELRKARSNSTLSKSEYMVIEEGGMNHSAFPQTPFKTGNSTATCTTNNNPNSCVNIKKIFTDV
Protocol: SupT1 cells were grown as a suspension culture and washed four times in buffer (150 mM KCl, 10 mM Hepes, pH 7.5). Cells were then lysed by hypo-osmotic shock, and membranes isolated by centrifugation and washing in isotonic buffer (140 mM KCl, 10 mM Hepes, pH 7.5). Membranes were diluted 1:10^4 and 1 μL of this solution was deposited on an agarose coated coverslip (1.5%). For bulk current blocking 4-aminopyridine a non-specific K+ channel blocker was used (5 mM, +50 mV). For specific blocking Kaliotoxin, a specific Kv-channel blocker, was used (50 μM, +50 mV).

[2] = molecular target: T2, bacterial potassium channel KcsA (Streptomyces lividans, UniProt P0A334); test: Bulk current block of KcsA from E. coli membranes reconstituted in droplet bilayer; assay type: biochemical; details: 150 mM Ba2+ (BaCl2) in droplet, +50 mV, n=5
T2 construct: made in house; host or cells: porin-free E. coli strain PC2889, vector pQE60
T2 sequence (P0A334 1-160): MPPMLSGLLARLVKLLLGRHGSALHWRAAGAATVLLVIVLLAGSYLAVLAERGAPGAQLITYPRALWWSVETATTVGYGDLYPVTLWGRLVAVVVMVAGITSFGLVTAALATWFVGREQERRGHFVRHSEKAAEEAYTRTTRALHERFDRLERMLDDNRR
Protocol: KcsA was overexpressed in pQE60 (Qiagen, Germany) using a porin-free E. coli strain PC2889. Cells were disintegrated using a pressure-based cell homogenizer (TC5-612, Stansted Fluid Power, UK) and membranes isolated by centrifugation in water before freezing in liquid nitrogen. Sedimented membranes were resuspended in 150 mM KCl, 10 mM Hepes, pH 7.5. Membrane preparations were diluted 1:10^6 (for all cases dilutions are reported as volume:volume unless stated otherwise) and 1:10^8 for bulk and single channel recordings, respectively. Bulk and single channel recording was performed in 150 mM KCl, 10 mM Succinic acid, pH 4. Blocking experiments were performed using droplets containing 150 mM BaCl2, 10 mM Hepes, pH 7.5 (+50 mV, n=5).

[3] = molecular target: Human NR1-1a/NR2A NMDA receptor (Homo sapiens, UniProt Q05586+Q12879); details: glutamate 10 μM and glycine 10 μM added together, +50 mV, bulk current, n=5
Sequence of Human NR1-1a/NR2A NMDA receptor (Q12879 23-1464, other chains not shown): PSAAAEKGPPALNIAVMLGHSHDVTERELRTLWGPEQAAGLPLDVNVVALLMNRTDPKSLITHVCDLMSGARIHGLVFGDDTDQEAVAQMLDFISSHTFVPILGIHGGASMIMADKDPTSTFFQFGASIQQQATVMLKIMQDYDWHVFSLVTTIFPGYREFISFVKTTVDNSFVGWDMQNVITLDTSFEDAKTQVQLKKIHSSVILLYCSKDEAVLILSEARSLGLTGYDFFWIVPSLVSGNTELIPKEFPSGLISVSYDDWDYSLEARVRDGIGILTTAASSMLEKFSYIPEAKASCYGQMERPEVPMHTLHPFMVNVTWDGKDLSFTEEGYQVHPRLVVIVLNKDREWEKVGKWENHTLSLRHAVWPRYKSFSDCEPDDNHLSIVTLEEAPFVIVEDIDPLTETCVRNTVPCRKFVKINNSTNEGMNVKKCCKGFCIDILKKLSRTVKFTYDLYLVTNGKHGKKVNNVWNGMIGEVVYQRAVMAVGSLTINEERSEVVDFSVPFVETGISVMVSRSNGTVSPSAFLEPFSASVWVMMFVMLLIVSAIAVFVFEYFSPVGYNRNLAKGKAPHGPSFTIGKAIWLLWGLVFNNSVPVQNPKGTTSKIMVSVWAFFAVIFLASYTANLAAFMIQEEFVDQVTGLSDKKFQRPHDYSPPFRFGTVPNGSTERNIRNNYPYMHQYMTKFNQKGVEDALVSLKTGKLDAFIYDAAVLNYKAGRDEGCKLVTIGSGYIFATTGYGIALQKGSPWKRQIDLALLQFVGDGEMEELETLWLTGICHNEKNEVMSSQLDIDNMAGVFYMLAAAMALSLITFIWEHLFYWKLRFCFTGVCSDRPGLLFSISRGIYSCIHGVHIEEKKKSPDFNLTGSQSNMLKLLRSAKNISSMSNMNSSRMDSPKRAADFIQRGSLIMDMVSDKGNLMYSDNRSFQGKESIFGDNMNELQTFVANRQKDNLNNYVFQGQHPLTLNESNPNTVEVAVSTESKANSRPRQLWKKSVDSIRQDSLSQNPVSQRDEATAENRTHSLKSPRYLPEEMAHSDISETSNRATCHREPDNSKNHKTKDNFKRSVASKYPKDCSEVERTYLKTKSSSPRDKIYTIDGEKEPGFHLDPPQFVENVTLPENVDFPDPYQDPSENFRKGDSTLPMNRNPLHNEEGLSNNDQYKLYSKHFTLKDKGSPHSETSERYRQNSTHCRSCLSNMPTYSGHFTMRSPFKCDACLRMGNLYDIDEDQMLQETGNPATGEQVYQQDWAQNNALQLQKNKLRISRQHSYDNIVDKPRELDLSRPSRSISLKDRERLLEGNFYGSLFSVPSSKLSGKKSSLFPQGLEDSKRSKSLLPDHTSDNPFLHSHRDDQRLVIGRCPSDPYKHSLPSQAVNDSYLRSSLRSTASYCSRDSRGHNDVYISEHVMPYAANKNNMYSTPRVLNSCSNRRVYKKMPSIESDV
Protocol: Human NR1-1a/NR2A receptor subunits were expressed in a adherent mouse fibroblast 3T3 cell line. After mechanically detaching cells from culture flasks, cells were washed in isotonic buffer (3 times with 140 mM NaCl, 10 mM Hepes, pH 7.5), Cells were then mechanically disrupted by 30 s of ultrasound (Sonorex, Bandelin, Germany, 320 W) and four freeze-thaw cycles. After isolating the membranes by centrifugation and washing in the above buffer, the sample was diluted into the same buffer (1:10^3). […] Upon further dilution of the membrane preparation (1:100) single channels could be recorded (+50 mV applied voltage).

[4] = system: KATP channel (Kir6.2 and SUR1); test: Bulk current block of KATP channels from Min6 cell membranes reconstituted in droplet bilayer; assay type: biochemical; details: glibenclamide 1 mM, +50 mV, 140 mM KCl, 10 mM Hepes, pH 7.5, n=5
Protocol: For KATP channels, Kir6.2 and SUR1 (Sulfonylurea receptor) were co-expressed in Min6 cells. Frozen cells were subjected to three freeze-thaw cycles before they were sonicated for 1 minute (4° C., Sonorex, Bandelin, Germany, 320 W). After isolation of membranes by centrifugation, membranes were washed in isotonic buffer (140 mM KCl, 10 mM Hepes, pH 7.5), and diluted 1:5000. Membranes were incorporated into agarose by mixing (1:10 v:v) with cooling agarose (1.5%) and deposited onto the coverslip prior to device assembly. For single channel recordings the sample was diluted a further 10-fold. Electrical recordings were performed in 140 mM KCl, 10 mM Hepes, pH 7.5 in both droplet and agarose support. Bulk current block was obtained using glybenclamide (1 mM, +50 mV, n=5).

Gardos K+ ion channel = molecular target: T3, Gardos K+ ion channel (Homo sapiens, UniProt O15554+P0DP23); test: Ca2+ dependent K+ flux in red blood cell membranes reconstituted in droplet bilayer; assay type: biochemical; details: 5 mM Ca2+ versus none, 150 mM KCl, pH 7, +50 mV, n=5
T3 construct: red blood cells were isolated from whole blood; from tissue; host or cells: red blood cells from whole blood
Protocol: Following previously published protocol (Gibson et al, J Physiol: 511(Pt1), 225-234 (1998)), red blood cells were isolated from whole blood of Sickle Cell or healthy individuals by centrifugation and washing four times in PBS buffer (137 mM NaCl, 2.7 mM KCl, 10 mM sodium phosphate dibasic, 2 mM potassium phosphate monobasic, pH 7.4, containing 1% glucose), removing remaining blood components by aspiration. Cells were lysed by hypo-osmotic shock in low salt buffer (15 mM NaCl, 10 mM EDTA, 10 mM Hepes, pH 7). Membranes were then sedimented by centrifugation and washed in low salt buffer four times before resuspension into isotonic buffer (150 mM NaCl or KCl or CaCl2, 10 mM Hepes, pH 7.4). For Gardos channel experiments, membranes were resuspended in isotonic buffer containing 150 mM KCl, 10 mM Hepes, pH 7. Droplets with or without Ca^2+ (150 mM KCl, +/−5 mM CaCl2, +/−5 mM KCl, 10 mM Hepes, pH 7, +50 mV, n=5) were used to observe Ca^2+ dependent K^+ flux. […] Further dilution of 1:20 was needed for single channel recordings.

Compound: Kaliotoxin: a specific Kv-channel blocker
block of bulk current (ion flux reduced) ([1]; 50 μM Kaliotoxin): 99% | block of bulk current (ion flux reduced) ([1]; 50 μM Kaliotoxin, listed as KTX): 99.4%

Compound: [Ba+2].[Cl-].[Cl-] [Ba^2+, BaCl2]
block in current [2]: 93%

increase in ionic flux [3]: 98%
Compound: NCC(=O)O [glycine]

Compound: COc1ccc(Cl)cc1C(=O)NCCc1ccc(S(=O)(=O)NC(=O)NC2CCCCC2)cc1 [glibenclamide]
bulk currents blocked [4]: 91%

Compound: Nc1ccncc1 [4-aminopyridine]
block of bulk current (ion flux reduced) ([1]; 5 mM 4-aminopyridine): 96%

increase of Ca2+ induced K+ flux (Gardos K+ ion channel): seven
Compound: [Ca+2].[Cl-].[Cl-] [Ca^2+, CaCl2]
